Measured values as given in patent publication US5621133A (priority 1995, dated 1997).
Where a name gives a salt, the structure may show the parent alone.

Assays:
dopamine D-1 receptor [1] = settings: for Intrinsic Activity (adenylate cyclase assay): dopamine = 100, goldfish retina or rat striatum; for EC50: read-out: EC50 (agonist activity in adenylate cyclase assay), tissue from goldfish retina or rat striatum
Protocol: In order to determine agonist activity, cell-free tissue homogenates are incubated in an ionic buffer solution containing ATP and the compound being evaluated. The tissue was obtained from either goldfish retina or rat striatum.

dopamine D-1 receptor [2] = target: dopamine D-1 receptor (Rattus norvegicus, UniProt P18901); assay: biochemical; settings: D-1 Ki, rat caudate, [125I]SCH-23982
Sequence of dopamine D-1 receptor (Rattus norvegicus, UniProt P18901) (P18901 whole entry): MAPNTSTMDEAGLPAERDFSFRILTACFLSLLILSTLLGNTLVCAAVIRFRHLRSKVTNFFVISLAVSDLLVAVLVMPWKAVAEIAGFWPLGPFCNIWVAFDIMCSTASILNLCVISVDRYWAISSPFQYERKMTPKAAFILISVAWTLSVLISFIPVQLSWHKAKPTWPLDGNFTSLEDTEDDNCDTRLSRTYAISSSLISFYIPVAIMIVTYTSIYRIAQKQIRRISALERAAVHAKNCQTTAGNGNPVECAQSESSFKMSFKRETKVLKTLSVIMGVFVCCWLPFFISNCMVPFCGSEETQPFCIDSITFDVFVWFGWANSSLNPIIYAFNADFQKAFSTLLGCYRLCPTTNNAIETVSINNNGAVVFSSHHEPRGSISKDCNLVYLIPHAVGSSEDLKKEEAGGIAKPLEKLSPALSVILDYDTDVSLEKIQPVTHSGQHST
Excerpt: The compounds compete with the radiolabeled ligand for occupancy of the receptors and the molar potency of each compound was quantified.
The Ki values are inversely proportional to the affinity of the compound for the receptor.

dopamine D-2 receptor = dopamine D-2 receptor (Rattus norvegicus, UniProt P61169); assay: biochemical; type: binding; settings: rat caudate, [125I]-p-aminophenylethyl spiroperidol; read-out: D-2 Ki
Sequence of dopamine D-2 receptor (P61169 whole entry): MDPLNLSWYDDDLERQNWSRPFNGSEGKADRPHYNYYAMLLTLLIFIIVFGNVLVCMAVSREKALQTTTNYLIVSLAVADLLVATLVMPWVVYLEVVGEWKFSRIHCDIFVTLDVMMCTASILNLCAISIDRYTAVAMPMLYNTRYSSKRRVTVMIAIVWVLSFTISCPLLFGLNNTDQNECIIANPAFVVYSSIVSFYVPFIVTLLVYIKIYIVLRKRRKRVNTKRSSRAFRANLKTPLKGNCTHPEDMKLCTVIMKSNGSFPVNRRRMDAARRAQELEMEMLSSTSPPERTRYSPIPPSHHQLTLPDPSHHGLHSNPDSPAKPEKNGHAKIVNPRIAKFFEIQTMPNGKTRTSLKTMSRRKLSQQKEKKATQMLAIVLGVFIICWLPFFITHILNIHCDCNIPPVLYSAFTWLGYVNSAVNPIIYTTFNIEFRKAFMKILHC
Protocol: Homogenized rat caudate was the source of the D-2 receptors. […] The molar affinity of the compound for the receptor binding site was calculated by the same method used for the D-1 receptor assay, assuming a competitive interaction between the compound and the radiolabeled ligand.

Row | SMILES | Intrinsic Activity (adenylate cyclase assay) (dopamine D-1 receptor [1]) | EC50 (dopamine D-1 receptor [1]) | Ki (dopamine D-1 receptor [2]) | Ki (dopamine D-2 receptor)
1 | C=CCNC[C@H]1O[C@@H](C23CC4CC(CC(C4)C2)C3)Cc2c1ccc(O)c2O (relative stereo) [Example 117] | 60 | 80 nM | 1200 nM | 1000 nM
2 | C#CCNC[C@H]1O[C@@H](C2CCCCC2)Cc2c1ccc(O)c2O (relative stereo) [Example 118] | 87 | 56 nM | 2500 nM | 6700 nM
3 | C=CCNC[C@H]1O[C@@H](CCCC)Cc2c1ccc(O)c2O (relative stereo) [Example 125] | 63 | 1000 nM | 2700 nM | > 10000 nM
4 | C=CCC[C@H]1Cc2c(ccc(O)c2O)[C@@H](CNC)O1 (relative stereo) [Example 132] | 106 | 870 nM | 86 nM | 640 nM
5 | CCCC[C@H]1Cc2c(ccc(O)c2O)[C@@H](CNC)O1 (relative stereo) [Example 135] | 136 | 7 nM | 180 nM | 1600 nM
6 | CNC[C@H]1O[C@@H](c2ccc(F)cc2)Cc2c1ccc(O)c2O (relative stereo) [Example 136] | 133 | 5 nM | 100 nM | 2500 nM
7 | CNC[C@H]1O[C@@H](CC2CCCCC2)Cc2c1ccc(O)c2O (relative stereo) [Example 140] | 113 | 8.4 nM | 60 nM | 1500 nM
8 | NC[C@@H]1O[C@H](C2CCCCC2)CCc2c1ccc(O)c2O (relative stereo) [Example 176, [1,3-cis]1-Aminomethyl-3-cyclohexyl-6,7-dihydroxy-1,3,4,5-tetrahydro-2-benzoxepin Hydrochloride] | 90 | 320 nM | 650 nM | 2600 nM
9 | Cc1cc2c(c(O)c1O)C[C@@H](C1CCCCC1)O[C@H]2CN (relative stereo) [Example 177, [1,3-cis]1-Aminomethyl-3-cyclohexyl-3,4-dihydro-5,6-dihydroxy-7-methyl-1H-2-benzopyran Hydrochloride] | 62 | 170 nM | 130 nM | 6600 nM
10 | Oc1ccc2c(c1O)C[C@@H](c1ccccc1)C[C@H]2[C@H]1CCCN1 (relative stereo) [Example 180, [1,3-cis]5,6-Dihydroxy-3-phenyl-1-(2'-pyrrolidinyl)-1,2,3,4-tetrahydronaphthalene Hydrobromide] | 71 | 80 nM | 1100 nM | 4700 nM
11 | CN(C)C[C@@H]1O[C@H](C2(c3ccccc3)CCCCC2)Cc2c1ccc(O)c2O (relative stereo) [Example 229] | 34 | 330 nM | 260 nM | 3600 nM
12 | CN(C)C[C@@H]1O[C@H](C2(C)CCCCC2)Cc2c1ccc(O)c2O (relative stereo) [Example 230] | 59 | 120 nM | 26 nM | > 10000 nM
13 | CCCC(=O)Oc1ccc2c(c1OC(=O)CCC)CC(c1ccccc1)C=C2CN (centres unmarked) [Example 17] | 42 | 2800 nM | 800 nM | > 10000 nM
14 | CC(C)C(=O)Oc1ccc2c(c1OC(=O)C(C)C)CC(c1ccccc1)C=C2CN (centres unmarked) [Example 18] | 46 | 1500 nM | 1300 nM | > 10000 nM
15 | CCC(=O)Oc1ccc2c(c1OC(=O)CC)CC(c1ccccc1)C=C2CN (centres unmarked) [Example 20] | 80 | 500 nM | 1900 nM | > 10000 nM
16 | COC(=O)Oc1ccc2c(c1OC(=O)OC)CC(c1ccccc1)C=C2CN (centres unmarked) [Example 23] | 65 | 1100 nM | 500 nM | > 10000 nM

More lines, now with the values ahead:

Row | Intrinsic Activity (adenylate cyclase assay) (dopamine D-1 receptor [1]) | EC50 (dopamine D-1 receptor [1]) | Ki (dopamine D-1 receptor [2]) | Ki (dopamine D-2 receptor) | SMILES
17 | 93 | 1000 nM | 2900 nM | 550 nM | CNC[C@H]1O[C@@H](Cc2ccc(OC)cc2)Cc2c1ccc(O)c2O (relative stereo) [Example 137]
18 | 102 | 6 nM | 25 nM | 12000 nM | CNC[C@H]1C[C@@H](c2ccccc2)Cc2c1ccc(O)c2O (relative stereo) [Example 150, [1,3-cis]5,6,Dihydroxy-1-(N-methyl)aminomethyl-3-phenyl-1,2,3,4-tetrahydro-naphthalene]
19 | 95 | 100 nM | 1400 nM | 17000 nM | NC[C@H]1Cc2c(ccc(O)c2O)[C@@H](CN)O1 (relative stereo) [Example 154, [1,3-cis]1,3-Bis(aminomethyl)-3,4-dihydro-5,6-dihydroxy-1H-2-benzopyran Dihydrochloride]
20 | 95 | 150 nM | 2600 nM | 8200 nM | NC[C@H]1O[C@@H](CO)Cc2c1ccc(O)c2O (relative stereo) [Example 155, [1,3-cis]1-Aminomethyl-3,4-dihydro-5,6-dihydroxy-3-hydroxymethyl-1H-2-benzopyran Hydrochloride]
21 | 127 | 9500 nM | 6300 nM | 16000 nM | NC[C@H]1O[C@@H](CN2CCCC2)Cc2c1ccc(O)c2O (relative stereo) [Example 156, [1,3-cis]1-Aminomethyl-3,4-dihydro-5,6-dihydroxy-3-pyrrolidinylmethyl-1H-2-benzopyran Dihydrochloride]
22 | 111 | 520 nM | 1300 nM | 16000 nM | NC[C@H]1O[C@@H](CN2CCOCC2)Cc2c1ccc(O)c2O (relative stereo) [Example 157]
23 | 100 | 330 nM | 2300 nM | 6000 nM | NC[C@H]1O[C@@H](CN2CCCCC2)Cc2c1ccc(O)c2O (relative stereo) [Example 158]
24 | 129 | 150 nM | 3100 nM | 3700 nM | NCC[C@H]1Cc2c(ccc(O)c2O)[C@@H](CN)O1 (relative stereo) [Example 159]
25 | 136 | 140 nM | 1300 nM | 1700 nM | NC[C@H]1O[C@@H](CCO)Cc2c1ccc(O)c2O (relative stereo) [Example 160]
26 | 58 | 450 nM | 1300 nM | 170 nM | CC(=O)NC[C@H]1Cc2c(ccc(O)c2O)[C@@H](CN)O1 (relative stereo) [Example 161]
27 | 96 | 200 nM | 3600 nM | 250 nM | NC[C@H]1O[C@@H](CNC(=O)c2ccccc2)Cc2c1ccc(O)c2O (relative stereo) [Example 164]
28 | 97 | 180 nM | 4800 nM | 2400 nM | CC(C)(C)C(=O)NC[C@H]1Cc2c(ccc(O)c2O)[C@@H](CN)O1 (relative stereo) [Example 166]
29 | 125 | 120 nM | 310 nM | 2.1 nM | NC[C@H]1O[C@@H](CNC(=O)c2ccc(Br)cc2)Cc2c1ccc(O)c2O (relative stereo) [Example 167]
30 | 103 | 270 nM | 17000 nM | > 10000 nM | NC[C@H]1O[C@@H](CNC(=O)c2ccco2)Cc2c1ccc(O)c2O (relative stereo) [Example 168]
31 | 150 | 200 nM | 8000 nM | > 10000 nM | CCCC(=O)NC[C@@H]1Cc2c(ccc(O)c2O)[C@H](CN)O1 (relative stereo) [Example 169]
32 | 151 | 130 nM | 570 nM | 140 nM | NC[C@H]1O[C@@H](CNC(=O)c2cccnc2)Cc2c1ccc(O)c2O (relative stereo) [Example 170]
33 | 124 | 180 nM | 530 nM | 810 nM | CC(C)C(=O)NC[C@H]1Cc2c(ccc(O)c2O)[C@@H](CN)O1 (relative stereo) [Example 171]
34 | 116 | 220 nM | 1100 nM | > 10000 nM | CC(=O)NCC[C@H]1Cc2c(ccc(O)c2O)[C@@H](CN)O1 (relative stereo) [Example 172]
35 | 63 | 390 nM | 3600 nM | 14000 nM | CNC[C@H]1O[C@@H](CCN)Cc2c1ccc(O)c2O (relative stereo) [Example 173]
36 | 90 | 65 nM | 1200 nM | 3500 nM | CNC[C@H]1O[C@@H](CCO)Cc2c1ccc(O)c2O (relative stereo) [Example 174]
37 | 95 | 1300 nM | 1900 nM | 34000 nM | NC[C@@H]1S[C@H](c2ccccc2)Cc2c1ccc(O)c2O (relative stereo) [Example 186, [1,3-cis]1-Aminomethyl-3-phenyl-3,4-dihydro-5,6-dihydroxy-1H-2-benzothiopyran Hydrochloride]
38 | 70 | 1200 nM | 2500 nM | 6400 nM | CNC[C@@H]1S[C@H](c2ccccc2)Cc2c1ccc(O)c2O (relative stereo) [Example 187, [1,3-cis]1-(N-Methyl)aminomethyl-3-phenyl-3,4-dihydro-5,6-dihydroxy-1H-2-benzothiopyran Hydrochloride]
